How the values were obtained:
[1] = tested on: phosphorylated RB (p-S807/11); assay: Phosphorylated RB level in EMT6 tumours of treated mice; assay type: in vivo, mouse (female BALB/c); details: EMT6 tumours collected two hours post-final dose, 150 mg/kg QD PO
Procedure: (§1) EMT6 cells were harvested and re-suspended in a 1:1 mixture of Matrigel™ (#354234; Corning Life Sciences, Corning, NY, United States of America) and serum-free RPMI-1640 medium, and thereafter injected sub-cutaneously (sc) (7×10^5 cells in a volume of […]) into the right flank of each female BALB/c mouse. After the tumour volume reached ˜100 mm^3, the mice were randomised into two groups (n=4/group) and given vehicle (1% CMC in water), or compound 1 (150 mg/kg) once daily by oral administration (QD PO). […] The level of phosphorylated RB (p-S807/11) was also found to be reduced in the EMT6 tumours collected two hours post-final dose, confirming CDK4/6 inhibition (FIG. 1B). A reduction in the […], PDL-1, in the spleen samples of the mice isolated two hours post-final dose was also observed, indicating the immunotherapeutic potential of compound 1 (FIG. 1C).

[2] = tested on: CT26.WT colorectal cancer cells; assay: In vivo anti-tumour activity in mice with a colorectal cancer cell syngeneic allograft (first experiment); parameters: species or system mouse (female BALB/c)
Procedure: (§2) Murine triple-negative breast cancer EMT6 tumour cells (ATCC® CRL-2755™) and colorectal cancer CT26.WT cells (ATCC® CRL-2638™) were cultured and expanded in RPMI-1640 medium (Roswell Park Memorial Institute Medium-1640) with L-glutamine and sodium bicarbonate (Sigma-Aldrich, Macquarie Park, NSW, Australia) supplemented with 10% heat-inactivated foetal bovine serum (FBS). Cells were cultured in an incubator at 5% CO2 37° C.
Similarly, mice bearing CT26.WT colorectal cancer cells were matched and randomised to vehicle or treatment groups (n=8/group). Female BALB/c mice with mean tumour volume ˜100 mm^3 were given vehicle (distilled water QD PO), compound 1 (100 mg/kg QD PO), an anti-PD1 antibody (RMP1-14-derived mouse monoclonal antibody; Assay Matrix Pty Ltd, Ivanhoe North, VIC, Australia), 200 μg/mouse/week by intraperitoneal (ip) administration) or compound 1 plus anti-PD-1 antibody.

[3] = tested on: PDL-1; assay: PD-L1 level in samples of EMT6-bearing treated mice; assay type: in vivo, mouse (female BALB/c); details: spleen samples isolated two hours post-final dose, 150 mg/kg QD PO
Procedure: as §1

[4] = tested on: CD3+, CD4+, CDK8+ and CD45+ T-cells; assay: Immune markers (T cell population in spleen) in CT26.WT-bearing treated mice; assay type: in vivo, mouse
Procedure: (§3) In another experiment, mice bearing CT26.WT colorectal cancer cells were treated with vehicle (distilled water QD PO), compound 1 (100 mg/kg QD PO), an anti-PD-1 antibody ([…] ip), or compound 1 plus the anti-PD-1 antibody.

[5] = tested on: EMT6 triple-negative breast cancer cells; assay: In vivo anti-tumour activity in mice with a breast cancer cell syngeneic allograft; details: 150 mg/kg QD PO
Procedure: as §2, §1

[6] = tested on: CT26.WT colorectal cancer cells; assay: In vivo anti-tumour activity in CT26.WT syngeneic mouse model (second experiment)
Procedure: as §2, §3

Row | SMILES | level of phosphorylated RB (p-S807/11) [1] | tumour growth inhibition (% TGI), used alone ([2]; 100 mg/kg QD PO alone, day 21 of dosing) | tumour growth inhibition (% TGI), combination with anti-PD-1 antibody ([2]; 100 mg/kg QD PO plus anti-PD-1 antibody 200 μg/mouse/week ip, day 21 of dosing) | survival of the mice, combination with anti-PD-1 antibody ([2]; 100 mg/kg QD PO plus anti-PD-1 antibody, p<0.001) | survival of the mice, single agent ([2]; 100 mg/kg QD PO, p<0.001) | level of immune checkpoint protein ligand PDL-1 [3] | level of immune markers CD3+, CD4+, CDK8+ and CD45+ T-cells [4] | weight loss or overt toxicity ([5]; EMT6-bearing mice, throughout the study) | TGI, used alone ([6]; 100 mg/kg QD PO alone, day 15 of dosing) | TGI, combination with anti-PD-1 antibody ([6]; 100 mg/kg QD PO plus anti-PD-1 antibody (150 g/mouse/week ip), day 15 of dosing) | anti-tumour efficacy of combination compared with anti-PD-1 alone ([6]; compound 1 plus anti-PD-1 antibody, p=0.03) | tumour growth inhibition (% TGI) ([5]; EMT6 allograft, final day of tumour measurement)
1 | CCN1CCN(Cc2ccc(Nc3ncc(F)c(-c4sc(NC5CCCC5)nc4C)n3)nc2)CC1 [Compound 1, N-cyclopentyl-5-(2-((5-((4-ethylpiperazin-1-yl)methyl)pyridin-2-yl)amino)-5-fluoropyrimidin-4-yl)-4-methylthiazol-2-amine] | reduced | 75% | 91% | significantly prolong | significantly prolong | reduction | increased level | No significant weight loss or any overt toxicity | 77% | 91% | more effective | 
2 | CNc1nc(C)c(-c2nc(Nc3ccc(CN4CCN(C(C)C)CC4)cn3)ncc2F)s1 [Compound 12, 5-(5-fluoro-2-((5-((4-isopropylpiperazin-1-yl)methyl)pyridin-2-yl)amino)pyrimidin-4-yl)-N,4-dimethylthiazol-2-amine] |  |  |  |  |  |  |  |  |  |  |  | 47%

Source: patent US20250049796A1, “USE OF 4-THIAZOL-N-(PYRIDIN-2-YL)PYRIMIDIN-2-AMINE DERIVATIVES IN COMBINATION THERAPIES FOR CANCER” (Aucentra Therapeutics Pty Ltd, priority 2022, published 2025)
